In ChEMBL document CHEMBL3046159, “Synthesis of some 3,4-disubstituted-6,7-dihydro-imidazo[2,1-b][1,3]thiazole and 3,4-disubstituted-7,8-dihydro-6H-imidazo[2,1-b][1,3]thiazine derivatives and evaluation of their cytotoxicities against F2408 and 5RP7 cells” (Med Chem Res, 2008):
≈ marks a conversion by molar mass, not a printed value. Calls of active or inactive are those of the source. The calls are words filed in the database; no cut-off is given here.

What was measured:
[1] = Cytotoxicity against Rattus norvegicus (rat) F2408 cells after 24 hr by MTT assay; type: cell-based; conditions: F2408, 24 h
[2] = Cytotoxicity against Rattus norvegicus (rat) F2408 cells assessed as cell viability at 0.0128 ug/ml after 24 hr by MTT assay; type: cell-based; conditions: read-out: Activity
[3] = Cytotoxicity against Rattus norvegicus (rat) F2408 cells assessed as cell viability at 0.0256 to 0.064 ug/ml after 24 hr by MTT assay; type: cell-based; conditions: read-out: Activity
[4] = Cytotoxicity against Rattus norvegicus (rat) 5RP7 cells after 24 hr by MTT assay; type: functional, cell-based; conditions: 5RP7, 24 h
[5] = Cytotoxicity against Rattus norvegicus (rat) 5RP7 cells assessed as cell viability at 0.0128 ug/ml after 24 hr by MTT assay; type: functional; conditions: 5RP7, 24 h, read-out: Activity
[6] = Cytotoxicity against Rattus norvegicus (rat) F2408 cells after 48 hr by MTT assay; type: cell-based; conditions: f2408, 48 h
5RP7 [7] = experiment: Cytotoxicity against Rattus norvegicus (rat) 5RP7 cells at high concentration after 48 hr by MTT assay; type: functional, cell-based
5RP7 [8] = experiment: Cytotoxicity against Rattus norvegicus (rat) 5RP7 cells at low concentration after 24 by MTT assay; type: functional, cell-based
[9] = Cytotoxicity against Rattus norvegicus (rat) F2408 cells at low concentration after 24 hr by MTT assay; type: cell-based; conditions: f2408, 24 h
[10] = Cytotoxicity against Rattus norvegicus (rat) 5RP7 cells at 0.0256 ug/ml by MTT assay; type: functional
[11] = Cytotoxicity against Rattus norvegicus (rat) F2408 cells at 0.0128 ug/ml by MTT assay; type: cell-based
[12] = Cytotoxicity against Rattus norvegicus (rat) F2408 cells at 0.064 ug/ml by MTT assay; type: cell-based
[13] = Cytotoxicity against Rattus norvegicus (rat) 5RP7 cells at 0.064 ug/ml by MTT assay; type: functional
[14] = Cytotoxicity against Rattus norvegicus (rat) F2408 cells at 0.0256 ug/ml by MTT assay; type: cell-based
[15] = Cytotoxicity against Rattus norvegicus (rat) 5RP7 cells at 0.0128 ug/ml by MTT assay; type: functional

| SMILES | IC50 [1] [µg/mL] | IC50 [4] [µg/mL] | Activity (5RP7 [8]) | Activity [9] | further results |
| --- | --- | --- | --- | --- | --- |
| Cc1ccc(-c2nc3n(c2-c2ccc(C)cc2)CCCS3)cc1 | 12 (≈ 37.4 µM) | 4.6 (≈ 14.4 µM) |  |  | viability at 24 h, 0.0128 ug/ml [2]: 100%; viability at 24 h [3]: 100%; viability at 0.0128 µg/mL [5]: 87% |
| c1ccc(-c2nc3n(c2-c2ccccc2)CCS3)cc1 | 9.5 (≈ 34.1 µM) | 15 (≈ 53.9 µM) |  |  | Activity [6]: Toxic; Activity (5RP7 [7]): Active |
| COc1ccc(-c2nc3n(c2-c2ccc(OC)cc2)CCS3)cc1 | 29 (≈ 85.7 µM) | 22 (≈ 65 µM) | Active | Non-toxic |  |
| c1ccc(-c2nc3n(c2-c2ccccc2)CCCS3)cc1 | 10 (≈ 34.2 µM) | 2.9 (≈ 9.92 µM) |  |  | Activity [10]: 28%; Activity [11]: 20%; Activity [12]: 18%; Activity [13]: 21%; Activity [14]: 21%; Activity [15]: 30% |
| Cc1ccc(-c2nc3n(c2-c2ccc(C)cc2)CCS3)cc1 | 15 (≈ 49 µM) | 18 (≈ 58.7 µM) | Active | Non-toxic |  |
